Patent US20260130933A1, “PHARMACEUTICAL COMPOSITION FOR PREVENTION OR TREATMENT OF NEPHROPATHY AND/OR DIABETES MELLITUS, COMPRISING ENAVOGLIFLOZIN” (DAEWOONG PHARMACEUTICAL CO., LTD., priority 2022, published 2026)

Assay: Example 2: phase 3 trial, enavogliflozin 0.3 mg vs dapagliflozin 10 mg once a day for 24 weeks added to metformin in patients with type 2 diabetes (same efficacy, exploratory and safety endpoints)
Format: in vivo, human
Method: Subjects who met the inclusion/exclusion criteria were administered a placebo of the clinical trial drug under single-blind (subject blinding) conditions during a 2-week run-in period while continuing to receive metformin. […] The randomized subjects were administered two tablets of the clinical trial drug for each administration group once a day, and then visited the institution at weeks 6, 12, 18, and 24 during the 24-week administration period to conduct efficacy and safety evaluations.
• 1. Change in HbA1c at week 24 after administration of clinical trial drug compared to Visit 2 (randomization)
• 1. Change in HbA1c at each time point of weeks 6, 12, and 18 after administration of clinical trial drug compared to Visit 2 (randomization) • 2. Change in FPG at each time point of weeks 6, 12, 18, and 24 after administration of clinical trial drug compared to Visit 2 (randomization) • 3. Proportion of subjects achieving HbA1c<7% at each time point of weeks 6, 12, 18, and 24 after administration of clinical trial drug • 4. Proportion of subjects achieving HbA1c<6.5% at each time point of weeks 6, 12, 18, and 24 after administration of clinical trial drug • 5. Proportion of subjects achieving therapeutic response (HbA1c change (HbA1c at Visit 2-HbA1c at each evaluation time point)>0.5% or HbA1c<7% at each evaluation time point compared to Visit 2 (randomization)) at each time point of weeks 6, 12, 18 and 24 after administration of clinical trial drug
• 1. Change in fasting c-peptide at each time point of weeks 6, 12, 18, and 24 after administration of clinical trial drug compared to Visit 2 (randomization) • 2. Change in body weight at each time point of weeks 6, 12, 18, and 24 after administration of clinical trial drug compared to Visit 2 (randomization) • 3. Change in fasting lipid concentration (total cholesterol, LDL-C, HDL-C, and triglycerides) at each time point of weeks 6, 12, 18, and 24 after administration of clinical trial drug compared to Visit 2 (randomization) • 4. Changes in systolic or diastolic blood pressure at each time point of weeks 6, 12, 18, and 24 after administration of clinical trial drug compared to Visit 2 (randomization) • 5. Changes in β-cell function and insulin resistance measured by HOMA-β and HOMA-IR at each time point of weeks 6, 12, 18, and 24 after administration of clinical trial drug compared to Visit 2 (randomization) • 6. Changes in renal function-related indicators (UACR, UGCR) measured by UACR at each time point of weeks 6, 12, 18, and 24 after administration of clinical trial drug compared to Visit 2 (randomization) • 7. Changes in obesity-related indicators (adiponectin, leptin) at each time point of weeks 6, 12, 18, and 24 after administration of clinical trial drug compared to Visit 2 (randomization)

[1] = Week 24, mPPS1, enavogliflozin minus dapagliflozin
[2] = Week 24, mPPS2, enavogliflozin minus dapagliflozin
[3] = week 6, modified per-protocol set 1, enavogliflozin 0.3 mg, dapagliflozin 10 mg
[4] = week 6, per-protocol set, enavogliflozin 0.3 mg vs dapagliflozin 10 mg
[5] = week 6, per-protocol set, enavogliflozin 0.3 mg, dapagliflozin 10 mg

Compound: OC[C@H]1O[C@@H](c2cc(Cc3ccc(C4CC4)cc3)c(Cl)c3c2CCO3)[C@H](O)[C@@H](O)[C@@H]1O [Enavogliflozin, (2S,3R,4R,5S,6R)-2-(7-chloro-6 (4-cyclopropylbenzyl)-2,3-dihydrobenzofuran-4-yl)-6-(hydroxymethyl)tetrahydro-2H-pyran-3,4,5-triol]
- Triglycerides, Mean (SD) (Week 24, mPPS1): 119.62(58.93) mg/dL
- Triglycerides, Median (Week 24, mPPS1): 104.00 mg/dL
- HDL-C change from baseline, LS mean difference [1]: -0.14 mg/dL
- LDL-C change from baseline, LS mean difference [1]: 0.71 mg/dL
- triglycerides change from baseline, LS mean difference [1]: 1.63 mg/dL
- Diastolic blood pressure change from baseline, ANCOVA LS mean (SE) (Week 24, mPPS2): −5.41 mmHg
- Diastolic blood pressure change from baseline, Mean (SD) (Week 24, mPPS2): −5.40 mmHg
- Diastolic blood pressure change from baseline, Median (Week 24, mPPS2): −6.00 mmHg
- Diastolic blood pressure, Mean (SD) (Week 24, mPPS2): 71.65 mmHg
- Diastolic blood pressure, Median (Week 24, mPPS2): 71.00 mmHg
- Systolic blood pressure change from baseline, ANCOVA LS mean (SE) (Week 24, mPPS2): −5.93(1.01) mmHg
- Systolic blood pressure change from baseline, Mean (SD) (Week 24, mPPS2): −6.34(9.75) mmHg
- Systolic blood pressure change from baseline, Median (Week 24, mPPS2): −5.00 mmHg
- Systolic blood pressure, Mean (SD) (Week 24, mPPS2): 123.38(12.55) mmHg
- Systolic blood pressure, Median (Week 24, mPPS2): 122.00 mmHg
- diastolic blood pressure change from baseline, LS mean difference [2]: −1.15 mmHg
- systolic blood pressure change from baseline, LS mean difference [2]: 0.63 mmHg
- FPG change from baseline, LS mean (SE) (week 6): −28.07(2.14) mg/dL
- HOMA-IR change from baseline, LS mean (SE) (week 6): −1.47(0.14)
- HOMA-β change from baseline, LS mean (SE) (week 6): 7.22(5.44)
- HbA1c change from baseline, LS mean (SE) (week 6): −0.68(0.04) % p
- LDL-C change from baseline, LS mean (SE) (week 6): −0.09(1.89) mg/dL
- Subjects achieving HbA1c target of <7% (week 6): (53.68) %
- Subjects achieving HbA1c<6.5% (week 6): 12.63%
- Subjects achieving therapeutic response (HbA1c change >0.5% or HbA1c<7%) (week 6): 78.95%
- UACR change from baseline, LS mean (SE) (week 6): −12.75(10.48) g/kg
- UGCR change from baseline, LS mean (SE) (week 6): 65.72(2.70) mg/mg
- diastolic blood pressure change from baseline, LS mean (SE) (week 6): −2.75(0.69) mmHg
- fasting c-peptide change from baseline, LS mean (SE) (week 6): −0.07(0.02) ng/ml
- leptin change from baseline, LS mean (SE) (week 6): −2.43(0.46) ng/mL
- FPG change from baseline, LS mean difference (week 6, vs dapagliflozin): -4.27 mg/dL
- HDL-C change from baseline, LS mean difference (week 6, vs dapagliflozin): -0.49 mg/dL
- HOMA-IR change from baseline, LS mean difference (week 6, vs dapagliflozin): −0.16
- HOMA-β change from baseline, LS mean difference (week 6, vs dapagliflozin): 9.01
- HbA1c change from baseline, LS mean difference (week 6, vs dapagliflozin): −0.05 % p
- LDL-C change from baseline, LS mean difference (week 6, vs dapagliflozin): -4.29 mg/dL
- Odds ratio for achieving HbA1c<6.5% (week 6, vs dapagliflozin): 0.83
- Odds ratio for achieving HbA1c<7% (week 6, vs dapagliflozin): 1.06
- Odds ratio for achieving therapeutic response (week 6, vs dapagliflozin): 0.98
- UACR change from baseline, LS mean difference (week 6, vs dapagliflozin): −20.88
- UGCR change from baseline, LS mean difference (week 6, vs dapagliflozin): 15.62 mg/mg
- body weight change from baseline, LS mean difference (week 6, vs dapagliflozin): 0.04 kg
- diastolic blood pressure change from baseline, LS mean difference (week 6, vs dapagliflozin): −1.28 mmHg
- fasting c-peptide change from baseline, LS mean difference (week 6, vs dapagliflozin): 0.00 ng/mL
- leptin change from baseline, LS mean difference (week 6, vs dapagliflozin): -0.81 ng/mL
- systolic blood pressure change from baseline, LS mean difference (week 6, vs dapagliflozin): −0.58 mmHg
- total cholesterol change from baseline, LS mean difference (week 6, vs dapagliflozin): -2.10 mg/dL
- triglyceride change from baseline, LS mean difference (week 6, vs dapagliflozin): 18.76 mg/dL
- Subjects achieving HbA1c target of <7% (week 6, listed as enavogliflozin): 53.68%
- Change from baseline in total cholesterol, ANCOVA LS mean difference (week 6, modified per-protocol set 1, enavogliflozin 0.3 mg vs dapagliflozin 10 mg): -2.10 mg/dL
- Change from baseline in Total cholesterol, ANCOVA LS mean (SE) [3]: 4.77(2.19) mg/dL
- Change from baseline in Total cholesterol, Mean (SD) [3]: 4.34(17.75) mg/dL
- Change from baseline in total cholesterol, Median [3]: 3.00 mg/dL
- fasting Total cholesterol, Mean (SD) [3]: 155.77(35.37) mg/dL
- fasting Total cholesterol, Median [3]: 147.00 mg/dL
- Change from baseline in FPG, ANCOVA LS mean difference [4]: -4.27 mg/dL
- Change from baseline in HbA1c, ANCOVA LS mean difference [4]: −0.05 % p
- Change from baseline in body weight, ANCOVA LS mean difference [4]: 0.04 kg
- Change from baseline in fasting c-peptide, ANCOVA LS mean difference [4]: 0.00 ng/mL
- Odds ratio for achieving HbA1c target of <6.5%, logistic regression model [4]: 0.83
- Odds ratio for achieving therapeutic glycemic response, logistic regression model [4]: 0.98
- Change from baseline in FPG, ANCOVA LS mean (SE) [5]: -28.07 mg/dL
- Change from baseline in FPG, Mean (SD) [5]: -26.91 mg/dL
- Change from baseline in FPG, Median [5]: -27.00 mg/dL
- Change from baseline in HbA1c, ANCOVA LS mean (SE) [5]: −0.68 % p
- Change from baseline in HbA1c, Mean (SD) [5]: −0.62 % p
- Change from baseline in HbA1c, Median [5]: −0.57 % p
- Change from baseline in body weight, ANCOVA LS mean (SE) [5]: −1.56(0.20) kg
- Change from baseline in body weight, Mean (SD) [5]: −1.56(2.30) kg
- Change from baseline in body weight, Median [5]: -1.70 kg
